In US20250019378A1, “PYRROLE[2,3-B]PYRIDINE DERIVATIVES AS TYRO3 INHIBITORS” (HALIA THERAPEUTICS, INC., priority 2021, published 2025):

Target: recombinant human Tyro3 (Homo sapiens (Human), UniProt Q06418)
Test: Tyro3 Enzymatic Assay
Assay type: biochemical
Details: radiometric [32P]-ATP kinase assay, Poly(Glu, Tyr) substrate, 2 nM enzyme
Protocol: Poly(Glu, Tyr) sodium salt (Glu:Tyr (4:1), quality level 200, molecular weight 5,000-20,000, obtained from Sigma Aldrich, catalogue #P7244, assay concentration 0.20 mg/mL) and recombinant human Tyro3 (obtained from ThermoFisher Scientific, catalogue #PV3828, assay concentration 2 nM) were mixed in assay buffer (20 mM Hepes pH 7.5, 10 mM MgCl2, […] EGTA, 0.02% Brij35, 0.02 mg/ml BSA, 0.1 mM Na3VO4, 2 mM DTT, 1% DMSO, with added MnCl2 at a final concentration of 2 mM). Compounds of interest (in DMSO, serial 3-fold dilution from 10 μM to 0.5 nM) or control (1% DMSO) were dispensed into the kinase reaction mixture by Acoustic technology (Echo550; nanoliter range). After incubation at room temperature for 20 minutes, the kinase reaction was initiated by addition of [^32P]-ATP (Specific activity 10 μCi/μL) and the mixture was incubated at room temperature for 2 hours. The reaction was then stopped by spotting the reaction mixture on strips of phosphocellulose P81 paper. Following washing, the radioactivity of the P81 paper was measured and kinase activity data were expressed as the percent remaining kinase activity in test samples compared to vehicle (dimethyl sulfoxide) reactions. IC50 values and curve fits were obtained using Prism (GraphPad Software).

Chain of recombinant human Tyro3 (Q06418 41-890): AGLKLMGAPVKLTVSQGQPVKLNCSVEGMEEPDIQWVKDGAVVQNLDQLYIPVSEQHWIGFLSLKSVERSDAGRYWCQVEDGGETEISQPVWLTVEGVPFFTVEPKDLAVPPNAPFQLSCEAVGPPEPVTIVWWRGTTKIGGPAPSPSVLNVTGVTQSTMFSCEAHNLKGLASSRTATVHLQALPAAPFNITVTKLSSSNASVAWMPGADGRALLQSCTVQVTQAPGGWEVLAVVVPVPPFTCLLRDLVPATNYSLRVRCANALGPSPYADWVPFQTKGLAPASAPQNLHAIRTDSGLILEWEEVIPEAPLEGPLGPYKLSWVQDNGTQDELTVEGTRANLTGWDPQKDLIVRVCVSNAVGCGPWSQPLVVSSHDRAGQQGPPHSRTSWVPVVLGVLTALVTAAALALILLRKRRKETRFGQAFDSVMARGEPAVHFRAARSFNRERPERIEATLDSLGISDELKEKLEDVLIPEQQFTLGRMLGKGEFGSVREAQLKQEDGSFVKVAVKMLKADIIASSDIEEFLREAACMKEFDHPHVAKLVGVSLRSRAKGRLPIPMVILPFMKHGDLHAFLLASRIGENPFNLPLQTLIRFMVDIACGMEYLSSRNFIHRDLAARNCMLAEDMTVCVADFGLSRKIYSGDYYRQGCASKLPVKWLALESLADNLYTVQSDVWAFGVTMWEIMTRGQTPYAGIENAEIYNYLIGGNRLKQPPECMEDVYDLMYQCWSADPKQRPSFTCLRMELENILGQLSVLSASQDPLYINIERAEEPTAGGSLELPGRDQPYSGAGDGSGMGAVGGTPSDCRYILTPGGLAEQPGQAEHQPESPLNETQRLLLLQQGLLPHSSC

Structure (SMILES) | IC50 [nM]
COc1ccc(-c2c[nH]c3ncc(-c4cnn(C5CCN(C)CC5)c4)cc23)cn1 [Compound 1, 3-(6-methoxypyridin-3-yl)-5-(1-(1-methylpiperidin-4-yl)-1H-pyrazol-4-yl)-1H-pyrrolo[2,3-b]pyridine] | 151 to 501
CN1CCC(n2cc(-c3cnc4[nH]cc(-c5cccc(C(F)F)c5)c4c3)c(Cl)n2)CC1 [Compound 18, 5-(3-chloro-1-(1-methylpiperidin-4-yl)-1H-pyrazol-4-yl)-3-(3-(difluoromethyl)phenyl)-1H-pyrrolo[2,3-b]pyridine] | < 50
CCc1[nH]c2ncc(-c3cn(C4CCN(C)CC4)nc3OC)cc2c1-c1ccc(OC)nc1 [Compound 21, 2-ethyl-5-(3-methoxy-1-(1-methylpiperidin-4-yl)-1H-pyrazol-4-yl)-3-(6-methoxypyridin-3-yl)-1H-pyrrolo[2,3-b]pyridine] | 51 to 150
CN1CCC(n2cc(-c3cnc4[nH]cc(-c5cccc(C(F)F)c5)c4c3)c(F)n2)CC1 [Compound 17, 3-(3-(difluoromethyl)phenyl)-5-(3-fluoro-1-(1-methylpiperidin-4-yl)-1H-pyrazol-4-yl)-1H-pyrrolo[2,3-b]pyridine] | 51 to 150
COc1nn(C2CCN(C)CC2)cc1-c1cnc2[nH]cc(-c3cccc(C(F)F)c3)c2c1 [Compound 16, 3-(3-(difluoromethyl)phenyl)-5-(3-methoxy-1-(1-methylpiperidin-4-yl)-1H-pyrazol-4-yl)-1H-pyrrolo[2,3-b]pyridine] | < 50
CCc1[nH]c2ncc(-c3cn(C4CCN(C)CC4)nc3OC)cc2c1-c1cccc(F)c1 [Compound 24, 2-ethyl-3-(3-fluorophenyl)-5-(3-methoxy-1-(1-methylpiperidin-4-yl)-1H-pyrazol-4-yl)-1/-pyrrolo[2,3-b]pyridine] | 51 to 150
COc1nn(C2CCN(C)CC2)cc1-c1cnc2[nH]cc(-c3ccnc(C(F)F)c3)c2c1 [Compound 20, 3-(2-(difluoromethyl)pyridin-4-yl)-5-(3-methoxy-1-(1-methylpiperidin-4-yl)-1H-pyrazol-4-yl)-1H-pyrrolo[2,3-b]pyridine] | < 50
COc1ccc(-c2c[nH]c3ncc(-c4ccn(C5CCN(C)CC5)n4)cc23)cn1 [Compound 6, 3-(6-methoxypyridin-3-yl)-5-(1-(1-methylpiperidin-4-yl)-1H-pyrazol-3-yl)-1H-pyrrolo[2,3-b]pyridine] | > 500
COc1ccc(-c2c[nH]c3ncc(-c4cn(C5CCN(C)CC5)nc4C)cc23)cn1 [Compound 8, 3-(6-methoxypyridin-3-yl)-5-(3-methyl-1-(1-methylpiperidin-4-yl)-1H-pyrazol-4-yl)-1H-pyrrolo[2,3-b]pyridine] | 151 to 501
COc1ccc(-c2c[nH]c3ncc(-c4cc(CN5CCCC(O)C5)n(C)n4)cc23)cn1 (stereo not shown) [Compound 35, 1-((3-(3-(6-methoxypyridin-3-yl)-1H-pyrrolo[2,3-b]pyridin-5-yl)-1-methyl-1H-pyrazol-5-yl)methyl)piperidin-3-ol] | > 500
COc1nn(C2CCCN(C)C2)cc1-c1cnc2[nH]cc(-c3cccc(F)c3)c2c1 (stereo not shown) [Compound 15, 3-(3-fluorophenyl)-5-(3-methoxy-1-(1-methylpiperidin-3-yl)-1H-pyrazol-4-yl)-1H-pyrrolo[2,3-b]pyridine] | 151 to 501
COCCN1CCC(n2cc(-c3cnc4[nH]cc(-c5cccc(F)c5)c4c3)c(OC)n2)CC1 [Compound 29, 3-(3-fluorophenyl)-5-(3-methoxy-1-(1-(2-methoxyethyl)piperidin-4-yl)-1H-pyrazol-4-yl)-1H-pyrrolo[2,3-b]pyridine] | 51 to 150
COc1ccc(-c2c[nH]c3ncc(-c4cnn(C5CC(OC)C5)c4)cc23)cn1 (stereo not shown) [Compound 33, 5-(1-(3-methoxycyclobutyl)-1H-pyrazol-4-yl)-3-(6-methoxypyridin-3-yl)-1H-pyrrolo[2,3-b]pyridine] | > 500
COc1ccc(-c2c[nH]c3ncc(-c4cnn(C5CCN(C)CC5)c4C)cc23)cn1 [Compound 9, 3-(6-methoxypyridin-3-yl)-5-(5-methyl-1-(1-methylpiperidin-4-yl)-1H-pyrazol-4-yl)-1H-pyrrolo[2,3-b]pyridine] | > 500
COc1ccc(-c2c[nH]c3ncc(-c4cnn(C5CCC(O)CC5)c4)cc23)cn1 (stereo not shown) [Compound 32, 4-(4-(3-(6-methoxypyridin-3-yl)-1H-pyrrolo[2,3-b]pyridin-5-yl)-1H-pyrazol-1-yl)cyclohexan-1-ol] | 151 to 501
CCc1[nH]c2ncc(-c3cn(C4CCN(C)CC4)nc3Cl)cc2c1-c1cccc(F)c1 [Compound 26, 5-(3-chloro-1-(1-methylpiperidin-4-yl)-1H-pyrazol-4-yl)-2-ethyl-3-(3-fluorophenyl)-1H-pyrrolo[2,3-b]pyridine] | 151 to 501
COc1nn(C2CCN(C)C2)cc1-c1cnc2[nH]cc(-c3cccc(F)c3)c2c1 (stereo not shown) [Compound 12, 3-(3-fluorophenyl)-5-(3-methoxy-1-(1-methylpyrrolidin-3-yl)-1H-pyrazol-4-yl)-1H-pyrrolo[2,3-b]pyridine] | < 50
COc1ccc(-c2c[nH]c3ncc(-c4ccnn4C4CCN(C)CC4)cc23)cn1 [Compound 7, 3-(6-methoxypyridin-3-yl)-5-(1-(1-methylpiperidin-4-yl)-1H-pyrazol-5-yl)-1H-pyrrolo[2,3-b]pyridine] | > 500
CCc1[nH]c2ncc(-c3cn(C4CCN(C)CC4)nc3F)cc2c1-c1cccc(F)c1 [Compound 25, 2-ethyl-5-(3-fluoro-1-(1-methylpiperidin-4-yl)-1H-pyrazol-4-yl)-3-(3-fluorophenyl)-1H-pyrrolo[2,3-b]pyridine] | 51 to 150
COc1ccc(-c2c[nH]c3ncc(-c4cn(C5CCN(C)CC5)nc4OC)cc23)cn1 [Compound 2, 5-(3-methoxy-1-(1-methylpiperidin-4-yl)-1H-pyrazol-4-yl)-3-(6-methoxypyridin-3-yl)-1H-pyrrolo[2,3-b]pyridine] | < 50
COc1nn(C2CCN(C)CC2)cc1-c1cnc2[nH]c(Cl)c(-c3cccc(F)c3)c2c1 [Compound 28, 2-chloro-3-(3-fluorophenyl)-5-(3-methoxy-1-(1-methylpiperidin-4-yl)-1H-pyrazol-4-yl)-1H-pyrrolo[2,3-b]pyridine] | 51 to 150
CN1CCC(n2cc(-c3cnc4[nH]cc(-c5cccc(F)c5)c4c3)c(Cl)n2)CC1 [Compound 11, 5-(3-chloro-1-(1-methylpiperidin-4-yl)-1H-pyrazol-4-yl)-3-(3-fluorophenyl)-1H-pyrrolo[2,3-b]pyridine] | < 50
COc1nn(C2CCN(C)CC2)cc1-c1cnc2[nH]cc(-c3cccc(F)c3)c2c1 [Compound 10, 3-(3-fluorophenyl)-5-(3-methoxy-1-(1-methylpiperidin-4-yl)-1H-pyrazol-4-yl)-1H-pyrrolo[2,3-b]pyridine] | < 50
COc1ccc(-c2c[nH]c3ncc(-c4cn(C5CCN(C)CC5)nc4Cl)cc23)cn1 [Compound 5, 5-(3-chloro-1-(1-methylpiperidin-4-yl)-1H-pyrazol-4-yl)-3-(6-methoxypyridin-3-yl)-1H-pyrrolo[2,3-b]pyridine] | < 50
CCc1[nH]c2ncc(-c3cn(C4CCN(CC)CC4)nc3F)cc2c1-c1ccc(OC)nc1 [Compound 22, 2-ethyl-5-(1-(1-ethylpiperidin-4-yl)-3-fluoro-1H-pyrazol-4-yl)-3-(6-methoxypyridin-3-yl)-1H-pyrrolo[2,3-b]pyridine] | 51 to 150
